Columns and labels:
RAW264.7 cells = system: RAW264.7 cells; parameters: method as in PMID 34971945; conditions: RAW264.7 cells induced with lipopolysaccharide; cited from earlier work
α-glucosidase = biological target: T1, α-glucosidase (Saccharomyces cerevisiae, UniProt P53341); experiment: α-glucosidase inhibition assay (4-nitrophenyl-D-glucopyranoside substrate, 405 nm); type: biochemical; conditions: for inhibition at 100 µM: compound at 100 µM, mean ± SEM, triplicate
T1 construct: purchased Merck (Germany) G5003
T1 sequence (P53341 whole entry): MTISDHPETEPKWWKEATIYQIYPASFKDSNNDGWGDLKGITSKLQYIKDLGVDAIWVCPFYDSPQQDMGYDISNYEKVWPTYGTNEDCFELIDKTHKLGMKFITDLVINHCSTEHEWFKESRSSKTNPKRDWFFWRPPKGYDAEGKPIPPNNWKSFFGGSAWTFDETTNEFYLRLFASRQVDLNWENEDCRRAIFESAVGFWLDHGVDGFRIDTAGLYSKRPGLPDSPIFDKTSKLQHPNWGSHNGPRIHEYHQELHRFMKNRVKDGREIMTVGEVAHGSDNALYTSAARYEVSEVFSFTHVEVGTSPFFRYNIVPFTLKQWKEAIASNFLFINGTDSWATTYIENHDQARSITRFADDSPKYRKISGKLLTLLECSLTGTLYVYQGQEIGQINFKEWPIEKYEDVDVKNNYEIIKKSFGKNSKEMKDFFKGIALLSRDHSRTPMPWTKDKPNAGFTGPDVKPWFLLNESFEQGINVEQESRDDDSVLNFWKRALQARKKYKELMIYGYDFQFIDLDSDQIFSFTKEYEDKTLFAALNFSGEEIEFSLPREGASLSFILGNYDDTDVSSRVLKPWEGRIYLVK
Procedure: The α-glucosidase assay was performed as previously described. First, 130 μL of α-glucosidase (0.16 unit/mL) in 0.1 mM phosphate buffer (pH 6.8) was added to a 96-well plate with 20 μL of test compounds dissolved in dimethylsulfoxide. Then, 50 μL of 1 mM substrate (4-nitrophenyl-D-glucopyranoside) in the buffer was added to the mixture. The intensity of p-nitrophenol converted from 4-nitrophenyl-D-glucopyranoside by α-glucosidase was measured after […] at 405 nm using Infinite 200 PRO spectrophotometer (Tecan, Zürich, Switzerland). (1) Inhibitory activity rate (%)=[(ΔC−ΔS)/ΔC]×100 where ΔC and ΔS are the intensity of control and inhibitor after 20 min, respectively. […] The inhibitory effect was elucidated via triplicate independent experiments. […] Statistical differences were investigated using one-way ANOVA and Duncanʹs test with a p-value < 0.05. SigmaPlot 10.0 (Systat Software Inc., San Jose, CA, USA) was used to analyze the inhibition results.

β-glucuronidase = biological target: β-glucuronidase; parameters: method as in PMID 36295840; conditions: previous studies; cited from earlier work
PTP1B = system: PTP1B; parameters: method as in PMID 34416263; conditions: previous studies; cited from earlier work
[1] = system: platelet aggregation induced by collagen; parameters: method as in PMID 31200488; conditions: cited from earlier work
[2] = system: platelet aggregation induced by arachidonic acid; parameters: method as in PMID 31200488; conditions: cited from earlier work
SARS-CoV-2 = system: SARS-CoV-2; parameters: method as in PMID 35214108; conditions: Vero cells, immunofluorescence-based antiviral assays; cited from earlier work
influenza A virus H1N1 = system: influenza A virus H1N1; parameters: method as in PMID 34971945; conditions: cited from earlier work

## 3″-epi-dryoptol G
RAW264.7 cells
  effect on production of nitric oxide and secretion of IL-1β and IL-18: significant inhibitory effects

## C[C@H]1O[C@H](O[C@H]2[C@H](O)[C@@H](O)[C@@H](O[C@H]3[C@H](O)[C@@H](O)C(O)O[C@@H]3CO)O[C@@H]2CO)[C@H](O)[C@@H](O)[C@@H]1N[C@H]1C=C(CO)[C@@H](O)[C@H](O)[C@H]1O (stereo partly shown) [Acarbose, acarbose]
α-glucosidase
  inhibition at 100 µM: 21.7 ± 1.43%

## CCC(=O)c1c(O)c(C)c(O)c(CC2=C(O)C(C)(C)C(O)=C(C(C)=O)C2=O)c1O [Compound 1, flavaspidic acid AP]
α-glucosidase
  inhibition at 100 µM: < 50%

## CCCC(=O)c1c(O)cc(O)c(Cc2c(O)c(CC3=C(O)C(C)(C)C(O)=C(C(C)=O)C3=O)c(O)c(C(=O)CCC)c2O)c1O [Compound 2, nortrisflavaspidic acid ABB]
α-glucosidase
  IC50: 34 ± 0.14 µM
  inhibition at 100 µM: > 50%
β-glucuronidase
  IC50: 8 ± 1.8 µM
PTP1B
  IC50: 1.19 ± 0.13 µM

## CCCC(=O)c1c(O)cc(O)c(C)c1O [butyryl-3-methylphloroglucinol]
[1]
  inhibition of platelet aggregation, ratio: 92.36%
[2]
  inhibition of platelet aggregation, ratio: 89.51%

## dryocrassin ABBA
SARS-CoV-2
  inhibitory activity against SARS-CoV-2 infection: dose-dependent inhibitory activity

## dryoptol G
RAW264.7 cells
  effect on production of nitric oxide and secretion of IL-1β and IL-18: significant inhibitory effects

## filixic acid ABA
SARS-CoV-2
  inhibitory activity against SARS-CoV-2 infection: dose-dependent inhibitory activity
Influenza A virus H1N1
  antiviral effect against influenza A virus H1N1: responsible for the antiviral effect
